Several values for one entry are separate records, joined by “and”; a condition that tells them apart may be missing. Equal entries are not always repeated. Where two headings read alike, the source gives them in different places.
Columns and labels:
[1] = target: T1, H. sapiens eIF4A1 Phe163His (Homo sapiens, UniProt P60842, F163H); assay: Fluorescence polarization assay, FAM-labeled [AG]10 RNA and recombinant eIF4A; type: binding; conditions: RocA 50 µM
T1 construct: His tag (N); made in house; host or cells: E. coli BL21 Star (DE3)
T1 sequence (P60842 whole entry F163H): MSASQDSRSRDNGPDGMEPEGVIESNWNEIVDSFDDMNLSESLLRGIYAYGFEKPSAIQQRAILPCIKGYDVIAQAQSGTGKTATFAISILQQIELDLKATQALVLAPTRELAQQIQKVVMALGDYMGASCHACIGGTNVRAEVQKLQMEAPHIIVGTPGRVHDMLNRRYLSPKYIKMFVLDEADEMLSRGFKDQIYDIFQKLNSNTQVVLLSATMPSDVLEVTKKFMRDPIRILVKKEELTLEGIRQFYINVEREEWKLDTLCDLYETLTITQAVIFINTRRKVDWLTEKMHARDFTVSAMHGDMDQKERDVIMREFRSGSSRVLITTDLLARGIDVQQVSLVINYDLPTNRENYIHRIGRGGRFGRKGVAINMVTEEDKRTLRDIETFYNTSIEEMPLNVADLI

[2] = target: T2, O. sinensis eIF4A WT His154 (Ophiocordyceps sinensis, UniProt A0A8H4LTQ8); assay: as above; type: binding; conditions: for Kd: [AG]10 10 nM, compound 50 µM, read-out: Kd between eIF4A protein and RNA
T2 sequence (A0A8H4LTQ8 1-397): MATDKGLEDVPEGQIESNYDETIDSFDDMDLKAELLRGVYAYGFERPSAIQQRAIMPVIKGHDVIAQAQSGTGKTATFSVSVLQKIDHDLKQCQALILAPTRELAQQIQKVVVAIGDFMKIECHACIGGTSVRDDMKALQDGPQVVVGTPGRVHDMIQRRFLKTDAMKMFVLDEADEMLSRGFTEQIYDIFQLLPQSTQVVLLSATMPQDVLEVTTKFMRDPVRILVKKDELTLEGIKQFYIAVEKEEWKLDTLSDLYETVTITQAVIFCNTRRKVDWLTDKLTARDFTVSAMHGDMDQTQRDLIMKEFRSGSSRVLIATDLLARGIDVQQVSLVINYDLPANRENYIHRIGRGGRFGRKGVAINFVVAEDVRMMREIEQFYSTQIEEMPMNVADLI

[3] = test system: Ophiocordyceps sp. BRM1 eIF4A Gly172His; assay: In vitro translation in RRL with complex-preformed mRNAs; type: biochemical; conditions: reporter mRNA with polypurine motifs preincubated with eIF4A and 9.1 µM RocA, free RocA removed; Figure 3B
Method: (§1) The DNA fragments PCR-amplified from psiCHECK2−7×AGAGAG motifs or psiCHECK2-CAA repeats ([Iwasaki et al., 2016]) were used as a template for in vitro transcription with a T7-Scribe Standard RNA IVT Kit ([…]). RNA was capped and poly(A) tailed with a ScriptCap m^7G Capping System, a ScriptCap 2′-O-Methyltransferase Kit, and an A-Plus Poly(A) Polymerase Tailing Kit ([…]).
(§2) Then, 4 µl of complex-preformed mRNA was incubated with 50% RRL (Promega) in a 10 µl reaction volume for 1 hr at 30°C, according to the manufacturer’s instructions. The fluorescence signal was detected using the Renilla-Glo Luciferase Assay System (Promega) and measured with the GloMax Navigator System (Promega). In the control experiments, instead of recombinant eIF4A proteins, storage buffer was used. Moreover, recombinant eIF4A proteins were added to the G-25 flowthrough solution in place of the storage buffer.

[4] = test system: Ophiocordyceps sp. BRM1 eIF4A WT; assay: as above; type: biochemical; conditions: reporter mRNA with polypurine motifs preincubated with eIF4A and 9.1 µM RocA, free RocA removed; Figure 3B
Method: as §1, §2

[5] = [AG]10, ADP + Pi, RocA 50 µM, protein 0.05 μM
[6] = [AG]10, ADP + Pi, RocA 50 µM, protein 0.075 μM
[7] = [AG]10, ADP + Pi, RocA 50 µM, protein 0.1 μM
[8] = [AG]10, ADP + Pi, RocA 50 µM, protein 0.5 μM
[9] = [AG]10, ADP + Pi, RocA 50 µM, protein 0.75 μM
[10] = [AG]10, ADP + Pi, RocA 50 µM, protein 1 μM
[11] = [AG]10, ADP + Pi, RocA 50 µM, protein 5 μM
[12] = [AG]10, ADP + Pi, RocA 50 µM, protein 7.5 μM
[13] = [AG]10, ADP + Pi, RocA 50 µM, protein 10 μM
[14] = [AG]10, ADP + Pi, RocA 50 µM, protein 25 μM
[15] = [AG]10, ADP + Pi, RocA 50 µM, protein 50 μM
[16] = [AG]10 RNA, AMP-PNP, RocA, protein concentration 0.01 μM
[17] = [AG]10 RNA, AMP-PNP, RocA, protein concentration 0.05 μM
[18] = [AG]10 RNA, AMP-PNP, RocA, protein concentration 0.075 μM
[19] = [AG]10 RNA, AMP-PNP, RocA, protein concentration 0.1 μM
[20] = [AG]10 RNA, AMP-PNP, RocA, protein concentration 0.5 μM
[21] = [AG]10 RNA, AMP-PNP, RocA, protein concentration 0.75 μM
[22] = [AG]10 RNA, AMP-PNP, RocA, protein concentration 1 μM
[23] = [AG]10 RNA, AMP-PNP, RocA, protein concentration 5 μM
[24] = [AG]10 RNA, AMP-PNP, RocA, protein concentration 7.5 μM
[25] = [AG]10 RNA, AMP-PNP, RocA, protein concentration 10 μM
[26] = [AG]10 RNA, AMP-PNP, RocA, protein concentration 25 μM
[27] = [AG]10 RNA, AMP-PNP, RocA, protein concentration 50 μM

## COc1ccc([C@@]23Oc4cc(OC)cc(OC)c4[C@]2(O)[C@H](O)[C@H](C(=O)N(C)C)[C@H]3c2ccccc2)cc1 [RocA, rocaglamide A]
[1]; ADP + Pi, protein 0.01 μM
  fluorescence polarization, Mean: -0.03005
  fluorescence polarization, replicates: 0.07104 and -0.06011 and -0.1011
[1]; ADP + Pi, protein 0.05 μM
  fluorescence polarization, Mean: -0.008197
  fluorescence polarization, replicates: 0.03005 and 0.005464 and -0.06011
[1]; ADP + Pi, protein 0.075 μM
  fluorescence polarization, Mean: 0.02186
  fluorescence polarization, replicates: 0.03005 and 0.01366 and 0.02186
[1]; ADP + Pi, protein 0.1 μM
  fluorescence polarization, Mean: 0.01639
  fluorescence polarization, replicates: 0.04645 and -0.01913 and 0.02186
[1]; ADP + Pi, protein 0.5 μM
  fluorescence polarization, Mean: 0.08197
  fluorescence polarization, replicates: 0.04645 and 0.1038 and 0.09563
[1]; ADP + Pi, protein 0.75 μM
  fluorescence polarization, Mean: 0.06831
  fluorescence polarization, replicates: 0.1448 and -0.01913 and 0.07923
[1]; ADP + Pi, protein 1 μM
  fluorescence polarization, Mean: 0.1694
  fluorescence polarization, replicates: 0.2514 and 0.1694 and 0.08743
[1]; ADP + Pi, protein 5 μM
  fluorescence polarization, Mean: 0.3306
  fluorescence polarization, replicates: 0.3415 and 0.3661 and 0.2842
[1]; ADP + Pi, protein 7.5 μM
  fluorescence polarization, Mean: 0.4153
  fluorescence polarization, replicates: 0.3579 and 0.4973 and 0.3907
[1]; ADP + Pi, protein 10 μM
  fluorescence polarization, Mean: 0.5765
  fluorescence polarization, replicates: 0.694 and 0.5301 and 0.5055
[1]; ADP + Pi, protein 25 μM
  fluorescence polarization, Mean: 0.6311
  fluorescence polarization, replicates: 0.6366 and 0.7022 and 0.5546
[1]; ADP + Pi, protein 50 μM
  fluorescence polarization, Mean: 0.8251
  fluorescence polarization, replicates: 0.7268 and 0.8579 and 0.8907
[1]; AMP-PNP, protein 0.01 μM
  fluorescence polarization, Mean: -0.005464
[1]; AMP-PNP, protein 0.05 μM
  fluorescence polarization, Mean: 0.0847
[1]; AMP-PNP, protein 0.075 μM
  fluorescence polarization, Mean: 0.1721
[1]; AMP-PNP, protein 0.1 μM
  fluorescence polarization, Mean: 0.3169
  fluorescence polarization, replicates: 0.2705 and 0.3525 and 0.3279
[1]; AMP-PNP, protein 0.5 μM
  fluorescence polarization, Mean: 0.7951
  fluorescence polarization, replicates: 0.7705 and 0.7869 and 0.8279
[1]; AMP-PNP, protein 0.75 μM
  fluorescence polarization, Mean: 0.8306
  fluorescence polarization, replicates: 0.8361
[1]; AMP-PNP, protein 1 μM
  fluorescence polarization, Mean: 0.9317
[1]; AMP-PNP, protein 5 μM
  fluorescence polarization, Mean: 0.9536
[1]; AMP-PNP, protein 7.5 μM
  fluorescence polarization, Mean: 0.8907
[1]; AMP-PNP, protein 10 μM
  fluorescence polarization, Mean: 0.9481
[1]; AMP-PNP, protein 25 μM
  fluorescence polarization, Mean: 0.9481
[1]; AMP-PNP, protein 50 μM
  fluorescence polarization, Mean: 1
[2]; ADP + Pi (1 mM each)
  Kd: ~110 nM and 110 nM
[2]; AMP-PNP 1 mM
  Kd: 90 ± 14 nM
[2]; [AG]10, ADP + Pi, RocA 50 µM, protein 0.01 μM
  fluorescence polarization, replicates: 0.1995
[2]; [5]
  fluorescence polarization, Mean: 0.4699
  fluorescence polarization, replicates: 0.5109 and 0.4536
[2]; [6]
  fluorescence polarization, Mean: 0.6066
  fluorescence polarization, replicates: 0.6585
[2]; [7]
  fluorescence polarization, Mean: 0.7049
  fluorescence polarization, replicates: 0.7732 and 0.6667
[2]; [8]
  fluorescence polarization, Mean: 1.713
  fluorescence polarization, replicates: 1.781 and 1.675 and 1.683
[2]; [9]
  fluorescence polarization, Mean: 1.757
  fluorescence polarization, replicates: 1.724 (2×) and 1.8224
[2]; [10]
  fluorescence polarization, Mean: 1.82
  fluorescence polarization, replicates: 1.8224 (2×) and 1.814
[2]; [11]
  fluorescence polarization, Mean: 1.888
  fluorescence polarization, replicates: 1.913 and 1.872 and 1.88
[2]; [12]
  fluorescence polarization, Mean: 1.883
  fluorescence polarization, replicates: 1.855 and 1.904 and 1.888
[2]; [13]
  fluorescence polarization, Mean: 1.893
  fluorescence polarization, replicates: 1.921 and 1.896 and 1.863
[2]; [14]
  fluorescence polarization, Mean: 1.861
  fluorescence polarization, replicates: 1.863 and 1.913 and 1.806
[2]; [15]
  fluorescence polarization, Mean: 1.801
  fluorescence polarization, replicates: 1.814 and 1.798 and 1.79
[2]; [16]
  Fluorescence polarization, Replicate 1-3: 0.1557 and 0
  fluorescence polarization, Mean: 0.09016
[2]; [17]
  Fluorescence polarization, Replicate 1-3: 0.5246 (2×) and 0.418
  fluorescence polarization, Mean: 0.4891
[2]; [18]
  Fluorescence polarization, Replicate 1-3: 0.5328 and 0.6803
  fluorescence polarization, Mean: 0.6175
[2]; [19]
  Fluorescence polarization, Replicate 1-3: 0.8689 and 0.8033 and 0.7049
  fluorescence polarization, Mean: 0.7923
[2]; [20]
  Fluorescence polarization, Replicate 1-3: 1.713 (2×) and 1.631
  fluorescence polarization, Mean: 1.686
[2]; [21]
  Fluorescence polarization, Replicate 1-3: 1.795 and 1.7459 and 1.77
  fluorescence polarization, Mean: 1.77
[2]; [22]
  Fluorescence polarization, Replicate 1-3: 1.861 and 1.836 and 1.779
  fluorescence polarization, Mean: 1.825
[2]; [23]
  Fluorescence polarization, Replicate 1-3: 1.787 and 1.828 and 1.811
  fluorescence polarization, Mean: 1.809
[2]; [24]
  Fluorescence polarization, Replicate 1-3: 1.869 and 1.877 and 1.844
  fluorescence polarization, Mean: 1.863
[2]; [25]
  Fluorescence polarization, Replicate 1-3: 1.836 and 1.7459 and 1.795
  fluorescence polarization, Mean: 1.792
[2]; [26]
  Fluorescence polarization, Replicate 1-3: 1.902 and 1.77 and 1.779
  fluorescence polarization, Mean: 1.817
[2]; [27]
  Fluorescence polarization, Replicate 1-3: 1.852 and 1.787 and 1.77
  fluorescence polarization, Mean: 1.803
[3]
  translation of complex-preformed mRNA in RRL: could act as a translation repressor
[4]
  translation of complex-preformed mRNA in RRL: could not alter translation

— PMC9977294, “A parasitic fungus employs mutated eIF4A to survive on rocaglate-synthesizing Aglaia plants” (eLife, 2023)
